Here are results for 45 molecules from patent US20050222200A1, “AMIDE DERIVATIVES AS ION CHANNEL LIGANDS AND PHARMACEUTICAL COMPOSITIONS AND METHODS OF USING THE SAME” (Renovis, Inc., priority 2003, published 2005).

The target of the experiment is T1, VR1 (Homo sapiens, UniProt Q8NER1).
T1 construct: expressed in transfected cells; host or cells: 293 cells ("293 neurons" [sic])
T1 sequence (Q8NER1 whole entry, species assumed): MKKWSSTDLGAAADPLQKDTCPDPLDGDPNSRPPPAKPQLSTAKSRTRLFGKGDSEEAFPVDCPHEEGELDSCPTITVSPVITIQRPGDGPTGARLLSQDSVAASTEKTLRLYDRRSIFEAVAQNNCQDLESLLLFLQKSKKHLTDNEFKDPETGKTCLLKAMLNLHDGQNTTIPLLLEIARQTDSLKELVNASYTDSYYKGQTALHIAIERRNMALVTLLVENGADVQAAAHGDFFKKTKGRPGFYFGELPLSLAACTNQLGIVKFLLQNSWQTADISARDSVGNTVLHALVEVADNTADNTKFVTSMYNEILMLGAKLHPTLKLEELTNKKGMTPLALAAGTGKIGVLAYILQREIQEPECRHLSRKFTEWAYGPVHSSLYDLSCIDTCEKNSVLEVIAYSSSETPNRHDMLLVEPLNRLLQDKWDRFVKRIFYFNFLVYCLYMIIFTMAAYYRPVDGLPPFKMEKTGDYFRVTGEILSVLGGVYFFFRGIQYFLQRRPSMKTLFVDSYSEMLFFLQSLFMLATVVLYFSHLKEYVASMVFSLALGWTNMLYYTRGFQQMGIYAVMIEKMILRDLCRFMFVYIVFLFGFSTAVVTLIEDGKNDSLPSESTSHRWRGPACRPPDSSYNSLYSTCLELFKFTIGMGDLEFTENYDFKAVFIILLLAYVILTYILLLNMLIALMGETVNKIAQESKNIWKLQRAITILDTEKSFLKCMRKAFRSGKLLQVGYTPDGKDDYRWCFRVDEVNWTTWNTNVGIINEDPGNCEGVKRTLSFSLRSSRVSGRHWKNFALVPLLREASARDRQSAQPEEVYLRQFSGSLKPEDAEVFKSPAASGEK
Kind of experiment: High throughput calcium imaging assay of VR1 antagonists (Fura2, Flex Station, 96 well). Further: test concentration or dose not given here. It counts as cell-based. Particulars: Table 1 activity class.
Take `CC(C)(C)/C=C/c1ccc(C(=O)NCCc2ccccc2Cl)cc1` [Compound 11]: the “inhibition of calcium ion influx induced by capsaicin stimulation” value (“inhibition of calcium ion influx induced” below) is reported as “++++ (compound exhibited 75% or greater inhibition of calcium ion influx induced by capsaicin stimulation)”.

Turning to `CC(C)(C)/C=C/c1ccc(C(=O)NC2CCC(C(C)(C)C)CC2)cc1` (stereo not drawn) [Compound 12], the “inhibition of calcium ion influx induced” value is listed as “+ (compound exhibited 0-25% inhibition of calcium ion influx induced by capsaicin stimulation)”.

Take `CC(C)(C)/C=C/c1ccc(C(=O)NCc2ccccc2)cc1` [Compound 13]: the “inhibition of calcium ion influx induced” value was “+ (compound exhibited 0-25% inhibition of calcium ion influx induced by capsaicin stimulation)”.

Turning to `CCCNC(=O)c1ccc(/C=C/C(C)(C)C)cc1` [Compound 14], the “inhibition of calcium ion influx induced” value was “+ (compound exhibited 0-25% inhibition of calcium ion influx induced by capsaicin stimulation)”.

For the molecule `COc1ccc(NC(=O)c2ccc(/C=C/C(C)(C)C)cc2)cc1` [Compound 15], the “inhibition of calcium ion influx induced” value is reported as “+ (compound exhibited 0-25% inhibition of calcium ion influx induced by capsaicin stimulation)”.

As for `CC(C)(C)/C=C/c1ccc(C(=O)NCC2CCCO2)cc1` (stereo not drawn) [Compound 16], the “inhibition of calcium ion influx induced” value is given as “+ (compound exhibited 0-25% inhibition of calcium ion influx induced by capsaicin stimulation)”.

Regarding `CC(C)(C)/C=C/c1ccc(C(=O)NCc2ccc3c(c2)OCO3)cc1` [Compound 17], the “inhibition of calcium ion influx induced” value was “+ (compound exhibited 0-25% inhibition of calcium ion influx induced by capsaicin stimulation)”.

In the case of `CC(C)(C)/C=C/c1ccc(C(=O)NCCc2ccc(S(C)(=O)=O)cc2)cc1` [Compound 20], the “inhibition of calcium ion influx induced” value is “+ (compound exhibited 0-25% inhibition of calcium ion influx induced by capsaicin stimulation)”.

Consider `COc1ccc(CCNC(=O)c2ccc(/C=C/C(C)(C)C)cc2)cc1OC` [Compound 24], for which the “inhibition of calcium ion influx induced” value is reported as “+ (compound exhibited 0-25% inhibition of calcium ion influx induced by capsaicin stimulation)”.

Regarding `CC(C)(C)/C=C/c1ccc(C(=O)NC(C)(C)c2ccccc2)cc1` [Compound 26], the “inhibition of calcium ion influx induced” value was “+ (compound exhibited 0-25% inhibition of calcium ion influx induced by capsaicin stimulation)”.

Turning to `CC(C)(C)/C=C/c1ccc(C(=O)NCc2cccs2)cc1` [Compound 29], the “inhibition of calcium ion influx induced” value is “+ (compound exhibited 0-25% inhibition of calcium ion influx induced by capsaicin stimulation)”.

As for `CC(C)(C)/C=C/c1ccc(C(=O)Nc2ccccc2C#N)cc1` [Compound 30], the “inhibition of calcium ion influx induced” value is “++ (compound exhibited 25-50% inhibition of calcium ion influx induced by capsaicin stimulation)”.

Turning to `COc1ccccc1NC(=O)c1ccc(/C=C/C(C)(C)C)cc1` [Compound 31], the “inhibition of calcium ion influx induced” value was “+ (compound exhibited 0-25% inhibition of calcium ion influx induced by capsaicin stimulation)”.

In the case of `CC(C)(C)/C=C/c1ccc(C(=O)Nc2ccccc2Cl)cc1` [Compound 33], the “inhibition of calcium ion influx induced” value is recorded as “+ (compound exhibited 0-25% inhibition of calcium ion influx induced by capsaicin stimulation)”.

Turning to `COc1ccc(CNC(=O)c2ccc(/C=C/C(C)(C)C)cc2)cc1OC` [Compound 35], the “inhibition of calcium ion influx induced” value is listed as “+ (compound exhibited 0-25% inhibition of calcium ion influx induced by capsaicin stimulation)”.

Regarding `COc1ccc(NC(=O)c2ccc(/C=C/C(C)(C)C)cc2)cc1Cl` [Compound 37], the “inhibition of calcium ion influx induced” value is recorded as “+ (compound exhibited 0-25% inhibition of calcium ion influx induced by capsaicin stimulation)”.

On to `CC(C)(C)/C=C/c1ccc(C(=O)Nc2cccc(C#N)c2)cc1` [Compound 38], for which the “inhibition of calcium ion influx induced” value is “+ (compound exhibited 0-25% inhibition of calcium ion influx induced by capsaicin stimulation)”.

Turning to `CC(C)(C)/C=C/c1ccc(C(=O)Nc2ccccc2CCO)cc1` [Compound 39], the “inhibition of calcium ion influx induced” value is recorded as “++++ (compound exhibited 75% or greater inhibition of calcium ion influx induced by capsaicin stimulation)”.

Turning to `CC(C)(C)/C=C/c1ccc(C(=O)Nc2ccc(C(C)(C)C)cc2)cc1` [Compound 40], the “inhibition of calcium ion influx induced” value is “+++ (compound exhibited 50-75% inhibition of calcium ion influx induced by capsaicin stimulation)”.

On to `CC(C)c1ccc(NC(=O)c2ccc(/C=C/C(C)(C)C)cc2)cc1` [Compound 41], for which the “inhibition of calcium ion influx induced” value was “++ (compound exhibited 25-50% inhibition of calcium ion influx induced by capsaicin stimulation)”.

For `CCCCc1ccc(NC(=O)c2ccc(/C=C/C(C)(C)C)cc2)cc1` [Compound 42], the “inhibition of calcium ion influx induced” value is recorded as “+ (compound exhibited 0-25% inhibition of calcium ion influx induced by capsaicin stimulation)”.

As to `CC(C)(C)/C=C/c1ccc(C(=O)Nc2ccc(C3CCCCC3)cc2)cc1` [Compound 43], the “inhibition of calcium ion influx induced” value was “+ (compound exhibited 0-25% inhibition of calcium ion influx induced by capsaicin stimulation)”.

Take `COc1cc(NC(=O)c2ccc(/C=C/C(C)(C)C)cc2)cc(C(F)(F)F)c1` [Compound 44]: the “inhibition of calcium ion influx induced” value was “++++ (compound exhibited 75% or greater inhibition of calcium ion influx induced by capsaicin stimulation)”.

In the case of `Cc1ccc2[nH]c(=O)c3ccc(/C=C/C(C)(C)C)cc3c2c1` [Compound 45], the “inhibition of calcium ion influx induced” value is reported as “++++ (compound exhibited 75% or greater inhibition of calcium ion influx induced by capsaicin stimulation)”.

Turning to `CC(C)(C)/C=C/c1ccc(C(=O)Nc2ccc3c(c2)OCO3)cc1` [Compound 47], the “inhibition of calcium ion influx induced” value is listed as “++++ (compound exhibited 75% or greater inhibition of calcium ion influx induced by capsaicin stimulation)”.

Consider `Cc1cc(C)nc(NC(=O)c2ccc(/C=C/C(C)(C)C)cc2)c1` [Compound 48], for which the “inhibition of calcium ion influx induced” value is recorded as “++ (compound exhibited 25-50% inhibition of calcium ion influx induced by capsaicin stimulation)”.

On to `CC(C)(C)/C=C/c1ccc(C(=O)NCc2ccncc2)cc1` [Compound 49], for which the “inhibition of calcium ion influx induced” value was “++++ (compound exhibited 75% or greater inhibition of calcium ion influx induced by capsaicin stimulation)”.

Take `CC(C)(C)/C=C/c1ccc(C(=O)Nc2ccncc2)cc1` [Compound 52]: the “inhibition of calcium ion influx induced” value is “++++ (compound exhibited 75% or greater inhibition of calcium ion influx induced by capsaicin stimulation)”.

Take `CC(C)(C)/C=C/c1ccc(C(=O)Nc2cccnc2)cc1` [Compound 53]: the “inhibition of calcium ion influx induced” value is reported as “++++ (compound exhibited 75% or greater inhibition of calcium ion influx induced by capsaicin stimulation)”.

On to `CC(C)(C)/C=C/c1ccc(C(=O)Nc2cc[nH]n2)cc1` [Compound 54], for which the “inhibition of calcium ion influx induced” value is recorded as “+ (compound exhibited 0-25% inhibition of calcium ion influx induced by capsaicin stimulation)”.

`CC(C)(C)/C=C/c1ccc(C(=O)Nc2nccs2)cc1` [Compound 55]: the “inhibition of calcium ion influx induced” value is listed as “+ (compound exhibited 0-25% inhibition of calcium ion influx induced by capsaicin stimulation)”.

As for `CC(C)(C)/C=C/c1ccc(C(=O)NC2CCC(Cc3ccccc3)CC2)cc1` (stereo not drawn) [Compound 56], the “inhibition of calcium ion influx induced” value is “+ (compound exhibited 0-25% inhibition of calcium ion influx induced by capsaicin stimulation)”.

Take `CC(C)(C)/C=C/c1ccc(C(=O)NCCN2CCNCC2)cc1` [Compound 60]: the “inhibition of calcium ion influx induced” value is on record as “+ (compound exhibited 0-25% inhibition of calcium ion influx induced by capsaicin stimulation)”.

On to `CN(C)c1cccc(NC(=O)c2ccc(/C=C/C(C)(C)C)cc2)c1` [Compound 61], for which the “inhibition of calcium ion influx induced” value is recorded as “++++ (compound exhibited 75% or greater inhibition of calcium ion influx induced by capsaicin stimulation)”.

For `CCN(CC)c1ccc(NC(=O)c2ccc(/C=C/C(C)(C)C)cc2)cc1` [Compound 62], the “inhibition of calcium ion influx induced” value was “++++ (compound exhibited 75% or greater inhibition of calcium ion influx induced by capsaicin stimulation)”.

Regarding `Cc1ccnc(NC(=O)c2ccc(/C=C/C(C)(C)C)cc2)c1` [Compound 64], the “inhibition of calcium ion influx induced” value is recorded as “+ (compound exhibited 0-25% inhibition of calcium ion influx induced by capsaicin stimulation)”.

On to `CN1CCC(NC(=O)c2ccc(/C=C/C(C)(C)C)cc2)CC1` [Compound 65], for which the “inhibition of calcium ion influx induced” value is recorded as “+ (compound exhibited 0-25% inhibition of calcium ion influx induced by capsaicin stimulation)”.

Regarding `CC(C)(C)/C=C/c1ccc(C(=O)Nc2ccc3[nH]ccc3c2)cc1` [Compound 66], the “inhibition of calcium ion influx induced” value is listed as “++ (compound exhibited 25-50% inhibition of calcium ion influx induced by capsaicin stimulation)”.

For the molecule `CC(C)(C)/C=C/c1ccc(C(=O)Nc2ccncn2)cc1` [Compound 67], the “inhibition of calcium ion influx induced” value is reported as “+ (compound exhibited 0-25% inhibition of calcium ion influx induced by capsaicin stimulation)”.

Turning to `Cc1cccnc1NC(=O)c1ccc(/C=C/C(C)(C)C)cc1` [Compound 68], the “inhibition of calcium ion influx induced” value is “+++ (compound exhibited 50-75% inhibition of calcium ion influx induced by capsaicin stimulation)”.

On to `CC(C)(C)/C=C/c1ccc(C(=O)Nc2ccc(Br)cn2)cc1` [Compound 69], for which the “inhibition of calcium ion influx induced” value was “+ (compound exhibited 0-25% inhibition of calcium ion influx induced by capsaicin stimulation)”.

On to `CC(C)(C)/C=C/c1ccc(C(=O)Nc2ccc(C(F)(F)F)cn2)cc1` [Compound 70], for which the “inhibition of calcium ion influx induced” value was “+ (compound exhibited 0-25% inhibition of calcium ion influx induced by capsaicin stimulation)”.

Regarding `CC(C)(C)/C=C/c1ccc(C(=O)Nc2ncc(C(F)(F)F)cc2Cl)cc1` [Compound 71], the “inhibition of calcium ion influx induced” value is recorded as “+ (compound exhibited 0-25% inhibition of calcium ion influx induced by capsaicin stimulation)”.

With `CCc1ccnc(NC(=O)c2ccc(/C=C/C(C)(C)C)cc2)c1` [Compound 72], the “inhibition of calcium ion influx induced” value was “+ (compound exhibited 0-25% inhibition of calcium ion influx induced by capsaicin stimulation)”.

In the case of `CC(C)(C)/C=C/c1ccc(C(=O)Nc2ccc(Cl)nc2)cc1` [Compound 74], the “inhibition of calcium ion influx induced” value is on record as “+++ (compound exhibited 50-75% inhibition of calcium ion influx induced by capsaicin stimulation)”.
